Converted amounts (≈) assume the structure as drawn.
Test system: Escherichia coli
Assay: minimum inhibitory concentration (MIC)
Protocol: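 Broth microdilution MIC (Sensititre BOPO7F bovine plate, CLSI methods) of 19 antimicrobials against field isolates of P. multocida, M. haemolytica, H. somni (deep nasopharyngeal swabs) and E. coli, Enterococcus spp. (rectal swabs) from weaned dairy heifers. Incubation 16-24 h at 35 C. MIC is the lowest concentration preventing visible growth. Values with <= or > lie at the tested range limits. Trimethoprim-sulfamethoxazole is given as the trimethoprim component of a 1:19 mixture.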

CO/N=C(\C(=O)N[C@@H]1C(=O)N2C(C(=O)O)=C(CSC(=O)c3ccco3)CS[C@H]12)c1csc(N)n1 [Ceftiofur]
Conditions	minimum inhibitory concentration [mg/L]
isolate (source animal id): 8	0.5 (≈ 0.955 µM)
isolate (source animal id): 9	1 (≈ 1.91 µM)
isolate (source animal id): 10	≤ 0.25
isolate (source animal id): 11	≤ 0.25
isolate (source animal id): 12	0.5 (≈ 0.955 µM)
isolate (source animal id): 13	> 8
isolate (source animal id): 14	> 8
isolate (source animal id): 15	≤ 0.25
isolate (source animal id): 16	0.5 (≈ 0.955 µM)
isolate (source animal id): 98	0.5 (≈ 0.955 µM)
isolate (source animal id): 99	0.5 (≈ 0.955 µM)
isolate (source animal id): 100	≤ 0.25
isolate (source animal id): 101	≤ 0.25
isolate (source animal id): 102	0.5 (≈ 0.955 µM)
isolate (source animal id): 103	0.5 (≈ 0.955 µM)
isolate (source animal id): 104	≤ 0.25
isolate (source animal id): 105	0.5 (≈ 0.955 µM)
isolate (source animal id): 106	0.5 (≈ 0.955 µM)
isolate (source animal id): 107	≤ 0.25
isolate (source animal id): 108	≤ 0.25
isolate (source animal id): 109	≤ 0.25
isolate (source animal id): 110	0.5 (≈ 0.955 µM)
isolate (source animal id): 111	≤ 0.25
isolate (source animal id): 112	≤ 0.25
isolate (source animal id): 113	0.5 (≈ 0.955 µM)
isolate (source animal id): 114	0.5 (≈ 0.955 µM)
isolate (source animal id): 115	4 (≈ 7.64 µM)
isolate (source animal id): 116	0.5 (≈ 0.955 µM)
isolate (source animal id): 117	≤ 0.25
isolate (source animal id): 118	0.5 (≈ 0.955 µM)
isolate (source animal id): 119	1 (≈ 1.91 µM)
isolate (source animal id): 120	0.5 (≈ 0.955 µM)
isolate (source animal id): 121	0.5 (≈ 0.955 µM)
isolate (source animal id): 122	0.5 (≈ 0.955 µM)
isolate (source animal id): 123	≤ 0.25
isolate (source animal id): 124	0.5 (≈ 0.955 µM)
isolate (source animal id): 125	0.5 (≈ 0.955 µM)
isolate (source animal id): 126	0.5 (≈ 0.955 µM)
isolate (source animal id): 127	0.5 (≈ 0.955 µM)
isolate (source animal id): 128	8 (≈ 15.3 µM)
isolate (source animal id): 129	0.5 (≈ 0.955 µM)
isolate (source animal id): 130	0.5 (≈ 0.955 µM)
isolate (source animal id): 131	0.5 (≈ 0.955 µM)
isolate (source animal id): 132	> 8
isolate (source animal id): 133	0.5 (≈ 0.955 µM)
isolate (source animal id): 134	0.5 (≈ 0.955 µM)
isolate (source animal id): 135	0.5 (≈ 0.955 µM)
isolate (source animal id): 136	0.5 (≈ 0.955 µM)
isolate (source animal id): 137	0.5 (≈ 0.955 µM)
isolate (source animal id): 138	≤ 0.25
isolate (source animal id): 139	≤ 0.25
isolate (source animal id): 140	0.5 (≈ 0.955 µM)
isolate (source animal id): 141	0.5 (≈ 0.955 µM)
isolate (source animal id): 142	0.5 (≈ 0.955 µM)
isolate (source animal id): 143	2 (≈ 3.82 µM)
isolate (source animal id): 144	8 (≈ 15.3 µM)
isolate (source animal id): 145	0.5 (≈ 0.955 µM)
isolate (source animal id): 146	≤ 0.25
isolate (source animal id): 147	8 (≈ 15.3 µM)
isolate (source animal id): 148	≤ 0.25
isolate (source animal id): 149	≤ 0.25
isolate (source animal id): 150	0.5 (≈ 0.955 µM)
isolate (source animal id): 151	≤ 0.25
isolate (source animal id): 152	≤ 0.25
isolate (source animal id): 153	≤ 0.25
isolate (source animal id): 154	0.5 (≈ 0.955 µM)
isolate (source animal id): 155	≤ 0.25
isolate (source animal id): 156	8 (≈ 15.3 µM)
isolate (source animal id): 157	0.5 (≈ 0.955 µM)
isolate (source animal id): 158	0.5 (≈ 0.955 µM)
isolate (source animal id): 159	≤ 0.25
isolate (source animal id): 160	≤ 0.25
isolate (source animal id): 161	≤ 0.25
isolate (source animal id): 162	8 (≈ 15.3 µM)
isolate (source animal id): 163	0.5 (≈ 0.955 µM)
isolate (source animal id): 164	≤ 0.25
isolate (source animal id): 165	≤ 0.25
isolate (source animal id): 166	≤ 0.25
isolate (source animal id): 167	0.5 (≈ 0.955 µM)
isolate (source animal id): 168	≤ 0.25
isolate (source animal id): 169	0.5 (≈ 0.955 µM)
isolate (source animal id): 170	0.5 (≈ 0.955 µM)
isolate (source animal id): 171	0.5 (≈ 0.955 µM)
isolate (source animal id): 172	≤ 0.25
isolate (source animal id): 173	0.5 (≈ 0.955 µM)
isolate (source animal id): 174	0.5 (≈ 0.955 µM)
isolate (source animal id): 175	0.5 (≈ 0.955 µM)
isolate (source animal id): 176	0.5 (≈ 0.955 µM)
isolate (source animal id): 177	8 (≈ 15.3 µM)
isolate (source animal id): 178	0.5 (≈ 0.955 µM)
isolate (source animal id): 179	≤ 0.25
isolate (source animal id): 180	0.5 (≈ 0.955 µM)
isolate (source animal id): 181	≤ 0.25
isolate (source animal id): 182	0.5 (≈ 0.955 µM)
isolate (source animal id): 183	0.5 (≈ 0.955 µM)
isolate (source animal id): 184	0.5 (≈ 0.955 µM)
isolate (source animal id): 185	0.5 (≈ 0.955 µM)
isolate (source animal id): 186	0.5 (≈ 0.955 µM)
isolate (source animal id): 187	≤ 0.25
isolate (source animal id): 188	> 8
